Assay results as given in patent US20210292320A1, “FUNCTIONALIZED HETEROCYCLIC COMPOUNDS AS ANTIVIRAL AGENTS” (Enanta Pharmaceuticals, Inc., priority 2020, published 2021).

Experiments:
[1] = test system: HBV viral product accumulation in 2.2.15 cells; assay: HBV antiviral activity in 2.2.15 cells (qPCR of cell lysates or HBsAg/HBeAg ELISA of supernatants, day 5); format: cell-based; details: Hepatitis B virus, 120 h, 5 days treatment, 0.5% DMSO, 50% reduction of viral product accumulation relative to no drug controls, irrespective of readout
Experimental: 2.2.15 cells are passaged upon attaining confluency in DMEM/F12 media in the presence of 10% FBS, Penn/Strep, and 250 ug/mL G418. Novel compounds are 5 fold serially diluted in DMSO and added to 96 well plates containing 35,000 cells/well at a 1:200 dilution so that the final concentration of DMSO is 0.5%. On day 5, post treatment cell lysates and supernatants are harvested for analysis.
Cells are lysed using Agilent Sidestep Lysis buffer, diluted 1:100 and quantified via quantitative real time PCR. Commercially available ELISA kits are used to quantitate the viral proteins HBsAg (Alpco) or HBeAg (US Biological) by following the manufacturer's recommended protocol after diluting samples to match the linear range of their respective assays. Irrespective of readout, compound concentrations that reduce viral product accumulation in the cell lysates or supernatants by 50% relative to no drug controls (EC50) are reported; EC50 ranges are as follows: A<0.1 μM; B 0.2-1 μM; C>1 μM.

[2] = Compound induced cellular toxicity in HepG2 cells (ATPlite 1Step, total ATP levels, day 3); format: cell-based; details: human, three days, 0.5% DMSO, 50% reduction of total ATP levels relative to no drug controls
Experimental: At day 3, post seeding cells are treated with ATPlite 1Step according to the manufacturer's instructions.

SMILES	EC50 [1]	CC50 at 3 days [2]
CC(C)(C)[C@@H]1Cn2nc(-c3ccc(F)cc3)cc2-c2cc(O)c(C(=O)O)cc21 [Example 1, (S)-6-(tert-butyl)-2-(4-fluorophenyl)-9-hydroxy-5,6-dihydropyrazolo[5,1-a]isoquinoline-8-carboxylic acid]	> 1000 nM	–
CC(C)(C)[C@@H]1Cn2nc(-c3ccccc3)cc2-c2cc(O)c(C(=O)O)cc21 [Example 2, (S)-6-(tert-butyl)-9-hydroxy-2-phenyl-5,6-dihydropyrazolo[5,1-a]isoquinoline-8-carboxylic acid]	> 1000 nM	–
CC(C)(C)[C@@H]1Cn2nc(-c3ccccc3F)cc2-c2cc(O)c(C(=O)O)cc21 [Example 3, (S)-6-(tert-butyl)-2-(2-fluorophenyl)-9-hydroxy-5,6-dihydropyrazolo[5,1-a]isoquinoline-8-carboxylic acid]	> 1000 nM	–
CC(C)(C)[C@@H]1Cn2nc(-c3cccc(F)c3)cc2-c2cc(O)c(C(=O)O)cc21 [Example 4, (S)-6-(tert-butyl)-2-(3-fluorophenyl)-9-hydroxy-5,6-dihydropyrazolo[5,1-a]isoquinoline-8-carboxylic acid]	> 1000 nM	–
CC(C)(C)[C@@H]1Cn2nc(-c3cccc(F)c3)c(-c3cccc(F)c3)c2-c2cc(O)c(C(=O)O)cc21 [Example 5, (S)-6-(tert-butyl)-1,2-bis(3-fluorophenyl)-9-hydroxy-5,6-dihydropyrazolo[5,1-a]isoquinoline-8-carboxylic acid]	> 1000 nM	–
CC(C)(C)[C@@H]1Cn2nc(-c3ccc(F)cc3)c(-c3ccc(F)cc3)c2-c2cc(O)c(C(=O)O)cc21 [Example 6, (S)-6-(tert-butyl)-1,2-bis(4-fluorophenyl)-9-hydroxy-5,6-dihydropyrazolo[5,1-a]isoquinoline-8-carboxylic acid]	< 100 nM	> 25 µM
CC(C)(C)[C@@H]1Cn2nc(-c3ccccc3F)c(-c3ccccc3F)c2-c2cc(O)c(C(=O)O)cc21 [Example 7, (S)-6-(tert-butyl)-1,2-bis(2-fluorophenyl)-9-hydroxy-5,6-dihydropyrazolo[5,1-a]isoquinoline-8-carboxylic acid]	< 100 nM	> 25 µM
CC(C)(C)[C@@H]1Cn2nc(-c3ccccc3)c(-c3ccccc3)c2-c2cc(O)c(C(=O)O)cc21 [Example 8, (S)-6-(tert-butyl)-9-hydroxy-1,2-diphenyl-5,6-dihydropyrazolo[5,1-a]isoquinoline-8-carboxylic acid]	< 100 nM	> 25 µM
CC(C)(C)[C@@H]1Cn2nc(-c3ccoc3)c(-c3ccoc3)c2-c2cc(O)c(C(=O)O)cc21 [Example 9, (S)-6-(tert-butyl)-1,2-di(furan-3-yl)-9-hydroxy-5,6-dihydropyrazolo[5,1-a]isoquinoline-8-carboxylic acid]	> 1000 nM	–
